In brackets after ≈: the same amount, converted by molar mass.

The text below walks through data of the Biogen ADME set (Fang et al. 2023).

The conditions of the data set: for aqueous solubility: pH 6.8.

As to `COc1ccc(CN2CCN(c3cc(C)nc(N)n3)CC2)cc1OC`, the MDR1-MDCK efflux ratio worked out at 5.7; the intrinsic clearance, human liver microsomes was at most 0.284 L/h/kg; the intrinsic clearance, rat liver microsomes was at most 0.64 L/h/kg; the aqueous solubility is 0.0536 mg/mL (≈ 156 µM).
On to `COc1ccc(C(=O)Cn2c(=O)n(-c3ccccc3F)c3nc(C)nc(C(N)=O)c32)cc1`, for which the MDR1-MDCK efflux ratio turned out to be 1.46; the intrinsic clearance, human liver microsomes is at most 0.284 L/h/kg; the intrinsic clearance, rat liver microsomes was 4.56 L/h/kg; the aqueous solubility came to 0.00369 mg/mL (≈ 8.47 µM).
On to `COc1ccc(/C=C/C(=O)c2c(C)nc3ccccc3c2N)cc1`, for which the MDR1-MDCK efflux ratio is 0.197; the intrinsic clearance, human liver microsomes is 10.9 L/h/kg; the intrinsic clearance, rat liver microsomes came out at 71.4 L/h/kg; the aqueous solubility came to 0.0396 mg/mL (≈ 124 µM).
For `Cc1cc(OCCCS(C)(=O)=O)cc(C)c1-c1cccc(COc2ccc3c(c2)OC[C@@H]3CC(=O)O)c1`, the MDR1-MDCK efflux ratio was determined as 6.84; the intrinsic clearance, human liver microsomes turned out to be 0.34 L/h/kg; the intrinsic clearance, rat liver microsomes is 1.7 L/h/kg.
Consider `COc1ccc2cc(-c3[nH]c(-c4ccc(S(C)=O)cc4)nc3-c3ccncc3)ccc2c1` (centres undefined), for which the MDR1-MDCK efflux ratio is 34.8; the intrinsic clearance, human liver microsomes is 0.298 L/h/kg; the intrinsic clearance, rat liver microsomes was determined as 7.26 L/h/kg; the aqueous solubility turned out to be 0.0034 mg/mL (≈ 7.74 µM).
Consider `Cn1cc(CCNc2cncc(Br)c2)cn1`, for which the MDR1-MDCK efflux ratio is 0.655; the intrinsic clearance, human liver microsomes was 0.721 L/h/kg; the intrinsic clearance, rat liver microsomes stood at 6.6 L/h/kg; the aqueous solubility worked out at 0.0404 mg/mL (≈ 144 µM).
For `N=C(N)N/N=C/c1c(Cl)cccc1Cl`, the MDR1-MDCK efflux ratio was 0.543; the intrinsic clearance, human liver microsomes was at most 0.284 L/h/kg; the intrinsic clearance, rat liver microsomes came to 4.62 L/h/kg; the aqueous solubility came to 0.0503 mg/mL (≈ 218 µM).
As for `NC(CO)(CO)CCc1ccc(Sc2cccc(OCc3ccccc3)c2)cc1Cl`, the intrinsic clearance, human liver microsomes was found to be 0.38 L/h/kg and the intrinsic clearance, rat liver microsomes was 0.852 L/h/kg.
For the compound `O=C(Nn1cnc2ccccc21)c1cc(Cl)ccc1F`, the MDR1-MDCK efflux ratio stood at 0.985; the intrinsic clearance, human liver microsomes is at most 0.284 L/h/kg; the intrinsic clearance, rat liver microsomes is at most 0.64 L/h/kg; the aqueous solubility stood at 0.0402 mg/mL (≈ 139 µM).
As for `CN(Cc1ccc(OC(F)(F)F)cc1)Cc1cn(C)nn1`, the MDR1-MDCK efflux ratio is 0.666; the intrinsic clearance, human liver microsomes is 0.902 L/h/kg; the intrinsic clearance, rat liver microsomes worked out at 17.4 L/h/kg.
Turning to `Cc1ccc(-c2nc(C(=O)N3CCc4ccccc4C3)cs2)o1`, the MDR1-MDCK efflux ratio amounted to 0.421; the intrinsic clearance, human liver microsomes stood at 11.2 L/h/kg; the intrinsic clearance, rat liver microsomes was determined as 216 L/h/kg; the aqueous solubility was found to be 0.036 mg/mL (≈ 111 µM).
`C[C@H]1CN2C[C@H](O)C[C@@H]2CN1Cc1cccc2ccccc12`: the MDR1-MDCK efflux ratio stood at 1.69; the intrinsic clearance, human liver microsomes stood at 1.45 L/h/kg; the intrinsic clearance, rat liver microsomes is 115 L/h/kg.
With `O=C(Nn1cnc2ccccc21)c1c2c(nc3ccccc13)CCC2`, the MDR1-MDCK efflux ratio was found to be 43.2; the intrinsic clearance, human liver microsomes was at most 0.284 L/h/kg; the intrinsic clearance, rat liver microsomes is at most 0.64 L/h/kg; the aqueous solubility was found to be 0.0567 mg/mL (≈ 173 µM).
For the compound `CCc1cc(-c2ccc(OC)c3ncccc23)nc(N2CCOCC2)n1`, the MDR1-MDCK efflux ratio stood at 0.848; the intrinsic clearance, human liver microsomes is 1.71 L/h/kg; the intrinsic clearance, rat liver microsomes came to 5.72 L/h/kg.
Consider `Cn1ncc2c(Oc3cccc(Oc4ccccn4)c3)ncnc21`, for which the MDR1-MDCK efflux ratio came to 0.672; the intrinsic clearance, human liver microsomes was 0.608 L/h/kg; the intrinsic clearance, rat liver microsomes came to 22.1 L/h/kg; the aqueous solubility turned out to be 0.0398 mg/mL (≈ 125 µM).
`COc1ccccc1-c1ccc(CC2(C(=O)NC3CC3)CCOCC2)cc1`: the MDR1-MDCK efflux ratio came out at 1.89; the intrinsic clearance, human liver microsomes was 4.88 L/h/kg; the intrinsic clearance, rat liver microsomes worked out at 129 L/h/kg; the aqueous solubility was found to be 0.0418 mg/mL (≈ 114 µM).
As for `Cc1ccsc1CN(C)C(=O)[C@@H]1CCCN1C(=O)NC(C)C`, the MDR1-MDCK efflux ratio came to 23.7; the intrinsic clearance, human liver microsomes is 0.781 L/h/kg; the intrinsic clearance, rat liver microsomes was 21.3 L/h/kg; the aqueous solubility is 0.0421 mg/mL (≈ 130 µM).
With `O=C1CCC(=O)N1CCN1CCCCc2ccccc21`, the MDR1-MDCK efflux ratio is 0.651; the intrinsic clearance, human liver microsomes was 7.33 L/h/kg; the intrinsic clearance, rat liver microsomes came to 88.3 L/h/kg; the aqueous solubility amounted to 0.0558 mg/mL (≈ 205 µM).
Taken in the same sequence, the figures for `COc1ccc(-c2noc([C@@H]3CCCN3Cc3cccnc3)n2)cn1` were 0.759, 5.88 L/h/kg, 74.2 L/h/kg and 0.0262 mg/mL (≈ 77.7 µM).
`CC(C)n1cnnc1-c1cccc(N2Cc3ccc(Br)cc3C2=O)n1`: the MDR1-MDCK efflux ratio worked out at 2.6; the intrinsic clearance, human liver microsomes was determined as 0.361 L/h/kg; the intrinsic clearance, rat liver microsomes was determined as 3.33 L/h/kg.
Consider `CCN(CC)S(=O)(=O)c1ccc2c(c1)CCN2CC(=O)NCc1ccccc1F`, for which the MDR1-MDCK efflux ratio worked out at 9.92; the intrinsic clearance, human liver microsomes came out at 20.2 L/h/kg; the intrinsic clearance, rat liver microsomes came out at 108 L/h/kg; the aqueous solubility was 0.0437 mg/mL (≈ 104 µM).
On the same counts, the results for `COc1ccccc1CNC(=O)C(C)N1CCCN(c2ccccc2C#N)CC1` (centres undefined) are 1.51, 131 L/h/kg, 241 L/h/kg and 0.0469 mg/mL (≈ 119 µM).
With `Cc1cccc(C)c1OCC(=O)N(C)[C@@H]1CC[C@@H](N2CCOCC2)[C@@H]1O`, the intrinsic clearance, human liver microsomes was 0.386 L/h/kg and the intrinsic clearance, rat liver microsomes was 6.25 L/h/kg.
For `Cc1csc(N(C(=O)c2ccc(-n3cncn3)c(F)c2)C2CC2)n1`, the MDR1-MDCK efflux ratio was determined as 0.63; the intrinsic clearance, human liver microsomes came out at 0.99 L/h/kg; the intrinsic clearance, rat liver microsomes was 12.9 L/h/kg; the aqueous solubility was 0.0533 mg/mL (≈ 155 µM).
In the case of `COc1ccc(N)cc1N1CCOC1=O`, the intrinsic clearance, human liver microsomes was at most 0.284 L/h/kg; the intrinsic clearance, rat liver microsomes is at most 0.64 L/h/kg; the aqueous solubility came out at 0.0322 mg/mL (≈ 155 µM).
On to `CN1C(=O)[C@H]2CN(CC3=CC[C@H]4C[C@@H]3C4(C)C)C[C@H]2C1=O`, for which the MDR1-MDCK efflux ratio was found to be 0.768; the intrinsic clearance, human liver microsomes amounted to 12.4 L/h/kg; the intrinsic clearance, rat liver microsomes worked out at 144 L/h/kg.
In the case of `Clc1ccc2c(NCCN3CCOCC3)ncnc2c1`, the MDR1-MDCK efflux ratio amounted to 1.37; the intrinsic clearance, human liver microsomes was 0.7 L/h/kg; the intrinsic clearance, rat liver microsomes amounted to 12.8 L/h/kg.
For `CC(=O)NCCCC(=O)Nc1ccc(Oc2ccccc2Cl)cc1`, the MDR1-MDCK efflux ratio stood at 8.25; the intrinsic clearance, human liver microsomes was 0.577 L/h/kg; the intrinsic clearance, rat liver microsomes came to 43.3 L/h/kg.
As to `Cc1nc(Nc2nccs2)cc(C2CN(c3ncccn3)C2)n1`, the MDR1-MDCK efflux ratio came out at 1.45; the fraction unbound, human plasma amounted to 0.0278; the fraction unbound, rat plasma was 0.0237; the intrinsic clearance, human liver microsomes was 1.82 L/h/kg. The compound also registered an intrinsic clearance, rat liver microsomes of 4.45 L/h/kg.
Regarding `CC(C)(C)c1ccc(=O)n(CC2CN(CC3(O)CCCC3)C2)n1`, the MDR1-MDCK efflux ratio was 18.8; the intrinsic clearance, human liver microsomes was 0.38 L/h/kg; the intrinsic clearance, rat liver microsomes is 6.58 L/h/kg; the aqueous solubility is 0.0457 mg/mL (≈ 143 µM).
Take `O=C(CSCCc1ccccn1)Nc1ccccc1`: the MDR1-MDCK efflux ratio is 0.518; the intrinsic clearance, human liver microsomes was determined as 2.53 L/h/kg; the intrinsic clearance, rat liver microsomes stood at 160 L/h/kg.
As to `CC(=O)NCc1ccc(-c2ccccc2C(=O)O)cc1`, the aqueous solubility was 0.0312 mg/mL (≈ 116 µM).
Regarding `CCCNS(=O)(=O)Nc1ncnc(OCCOc2ncc(Br)cn2)c1-c1ccc(Br)cc1`, the MDR1-MDCK efflux ratio was 0.933; the intrinsic clearance, human liver microsomes was found to be 6.05 L/h/kg; the intrinsic clearance, rat liver microsomes worked out at 37.9 L/h/kg.
As to `COc1cccc2cc(C(N)=S)/c(=N/Nc3ccccc3)oc12`, the MDR1-MDCK efflux ratio came out at 0.496 and the aqueous solubility turned out to be 0.00045 mg/mL (≈ 1.38 µM).
On to `CON(C)C(=O)c1cccc2c(C)c(C)[nH]c12`, for which the MDR1-MDCK efflux ratio was found to be 0.476; the intrinsic clearance, human liver microsomes came to 6.75 L/h/kg; the intrinsic clearance, rat liver microsomes worked out at 11.7 L/h/kg; the aqueous solubility came out at 0.0315 mg/mL (≈ 136 µM).
Take `Cc1cccc(OCC(=O)Nc2ccc3c(c2)C(=O)N(c2ccccc2)C3=O)c1`: the MDR1-MDCK efflux ratio was determined as 15.9 and the aqueous solubility is 0.00041 mg/mL (≈ 1.06 µM).
In the case of `Cc1nc(-c2ccc(Cl)c(Cl)c2)n(CC(C)(C)O)n1`, the MDR1-MDCK efflux ratio came out at 0.634; the intrinsic clearance, human liver microsomes is at most 0.284 L/h/kg; the intrinsic clearance, rat liver microsomes was at most 0.64 L/h/kg; the aqueous solubility is 0.0419 mg/mL (≈ 140 µM).
`COc1ncccc1CNc1c(C#N)cnc2c(C)cc(F)cc12` had an intrinsic clearance, human liver microsomes of 9.34 L/h/kg and an intrinsic clearance, rat liver microsomes of 74.8 L/h/kg.
Compound `Cc1cc(CO)nc(N2CCCCC2)n1` came in with an intrinsic clearance, human liver microsomes of 1.6 L/h/kg and an intrinsic clearance, rat liver microsomes of 6.79 L/h/kg.
For `CN(c1ncc(F)cn1)[C@H]1CCCNC1`, the MDR1-MDCK efflux ratio came to 0.438; the fraction unbound, human plasma stood at 1; the fraction unbound, rat plasma turned out to be 1; the intrinsic clearance, human liver microsomes is at most 0.284 L/h/kg. The compound also yielded an intrinsic clearance, rat liver microsomes of at most 0.64 L/h/kg.
In the case of `N#CC1(NC(=O)CN2CCOCC2)CCCCCC1`, the MDR1-MDCK efflux ratio came to 2.14; the intrinsic clearance, human liver microsomes is at most 0.284 L/h/kg; the intrinsic clearance, rat liver microsomes was found to be 3.93 L/h/kg; the aqueous solubility came to 0.0451 mg/mL (≈ 170 µM).
For the compound `CCS(=O)(=O)Cc1ccn(-c2cccc(F)c2)n1`, the MDR1-MDCK efflux ratio is 0.632; the intrinsic clearance, human liver microsomes is at most 0.284 L/h/kg; the intrinsic clearance, rat liver microsomes stood at 2.32 L/h/kg; the aqueous solubility stood at 0.0492 mg/mL (≈ 183 µM).
As to `CC(C)(C)c1csc(NC(=O)C2CC2)n1`, the MDR1-MDCK efflux ratio was 0.634; the intrinsic clearance, human liver microsomes was 1.21 L/h/kg; the intrinsic clearance, rat liver microsomes came out at 5.34 L/h/kg; the aqueous solubility came out at 0.0292 mg/mL (≈ 130 µM).
Consider `C=C1C[C@@H]2[C@H](CC[C@]3(C)C(=O)CC[C@@H]23)[C@@]2(C)C=CC(=O)C=C12`, for which the MDR1-MDCK efflux ratio turned out to be 0.494; the intrinsic clearance, human liver microsomes was at most 0.284 L/h/kg; the intrinsic clearance, rat liver microsomes was at most 0.64 L/h/kg.
`CC(C)c1cc(N(C)Cc2nc(C3CC3)n[nH]2)n[nH]1`: the MDR1-MDCK efflux ratio came out at 16.1; the intrinsic clearance, human liver microsomes is at most 0.284 L/h/kg; the intrinsic clearance, rat liver microsomes amounted to 2.2 L/h/kg.

As usually defined, the aqueous solubility is how much of the substance goes into solution per volume.
